As usually defined, the IC50 is the concentration that inhibits the measured activity by half.

This assay addresses T1, Interleukin-1 receptor-associated kinase 4 (Homo sapiens, UniProt Q9NWZ3).
T1 sequence (Q9NWZ3 whole entry): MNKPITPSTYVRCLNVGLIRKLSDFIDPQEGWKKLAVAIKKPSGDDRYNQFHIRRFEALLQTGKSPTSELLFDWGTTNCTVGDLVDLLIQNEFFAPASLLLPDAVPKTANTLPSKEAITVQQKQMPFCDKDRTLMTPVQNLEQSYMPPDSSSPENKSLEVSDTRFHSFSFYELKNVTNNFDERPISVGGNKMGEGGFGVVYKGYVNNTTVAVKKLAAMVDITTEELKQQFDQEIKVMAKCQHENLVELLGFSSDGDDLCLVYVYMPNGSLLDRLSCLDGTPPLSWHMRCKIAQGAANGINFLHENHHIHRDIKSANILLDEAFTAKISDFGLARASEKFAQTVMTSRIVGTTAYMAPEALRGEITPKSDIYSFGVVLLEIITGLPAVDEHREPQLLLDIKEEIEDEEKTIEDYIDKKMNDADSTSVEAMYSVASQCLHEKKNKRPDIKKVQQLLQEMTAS
The assay is described as follows: IRAK4 Inhibition Assay. As to the method:
The assays were performed in U-bottom 384-well plates. The final assay volume was 30 μL prepared from 15 μL additions of enzyme and substrates (fluoresceinated peptide and ATP) and test compounds in assay buffer (20 mM HEPES pH 7.2, 10 mM MgCl2, 0.015% Brij 35 and 4 mM DTT). The reaction was initiated by the combination of IRAK4 with substrates and test compounds. The reaction mixture was incubated at room temperature for 60 min. and terminated by adding 45 μL of 35 mM EDTA to each sample. The reaction mixture was analyzed on the Caliper LABCHIP 3000 (Caliper, Hopkinton, MA) by electrophoretic separation of the fluorescent substrate and phosphorylated product. Inhibition data were calculated by comparison to no enzyme control reactions for 100% inhibition and vehicle-only reactions for 0% inhibition. The final concentrations of reagents in the assays are ATP, 500 μM; FL-IPTSPITTTYFFFKKK peptide 1.5 μM; IRAK4, 0.6 nM; and DMSO, 1.6%.
For the molecule `CC(O)CCNC(=O)c1cnc2ccc(-c3cn[nH]c3)cc2c1NCC(F)F` (stereo not drawn) [US12492186, Example 65], the IC50 came to 15.2 nM.

As to `CC(C)Nc1c(-c2cc(C3CCCCN3)no2)cnc2ccc(-c3cn[nH]c3)cc12` (stereo not drawn) [US12492186, Example 128], the IC50 was determined as 4.8 nM.

As to `CC(O)CCNC(=O)c1cnc2ccc(-c3cn[nH]c3)cc2c1NC1CC(F)(F)C1` (stereo not drawn) [US12492186, Example 54], the IC50 turned out to be 17.6 nM.

The values are drawn from BindingDB's records for patent US12492186 (Bristol Myers Squibb, 2025).
